The results in this text go back to patent US20070014803A1, “METHODS AND COMPOSITIONS FOR DIAGNOSIS AND TREATMENT OF VIRAL AND BACTERIAL INFECTIONS” (Arbor Vita Corporation, priority 2005, published 2007).

Where no end group is shown, it is not given here.

Assay in all cases: MATRIX screen against PDZ library (modified G assay)
Holding throughout (assay type): binding
Settings in all cases: pre-incubation conditions

Assay [1] concerns the target T1, Shank 2 (Homo sapiens, UniProt Q9UPX8).
T1 construct: made in house
The procedure: (§1) Matrix graphPeptides and proteins were tested in an array format constituting a near complete set (255) of all the different PDZ domains in the human genome. Each PDZ domain polypeptide was expressed as a recombinant GST-PDZ polypeptide in a commercial glutathione S-transferase tagged expression system. Specific binding of biotinylated-PL peptides to PDZ domain polypeptides was detected using streptavidin-HRP and TMB substrate. Similarly, specific binding of PL protein-MBP fusion proteins to PDZ domain polypeptides was visualized using biotinylated anti-MBP, streptavidin-HRP and TMB substrate. The relative strength of binding was analyzed and the strong and weak binders are shown for each PL. A PDZ protein that binds more strongly is preferable when used for capturing or identifying PL proteins.
(§2) Two different types of ELISA assays were used to test the HIV Peptides 1904 and 1905. The primary MATRIX screen against all PDZ proteins in the library was performed under pre-incubation conditions, which are a modification of the G assay. A pre-incubation assay incubates the peptide with the HRP-streptavidin before addition of the mixture to the PDZ-coated plate. The subsequent titrations of the peptide against the PDZs of interest were performed under normal ELISA G assay conditions. In normal conditions the peptide is incubated on the PDZ coated plate before the later addition of the HRP-streptavidin. The reagents and supplies for both assays are listed below, as well as the two different protocols.
(§3) The PRISM Matrix ELISA modified G Assay was also used for pre-incubation and for the MATRIX assay. The protocol was as follows.
(§4) 1. Coat plate with 100 μl of 5 μg/ml anti-GST, O/N @ 4° C.
(§5) 2. Dump contents out of plate and tap dry on paper towels
(§6) 3. Block with 200 μl Assay Buffer for 1 to 2 hrs at room temperature
(§7) 4. Prepare proteins in Assay Buffer
(§8) 5. Wash plate 3× with cold PBS*
(§9) 6. Add proteins at 50 μl per well, incubate 1 to 2 hrs at 4° C.
(§10) 7. Prepare peptides in Assay Buffer:
(§11) • Prepare peptides in half of volume need with double of desired concentration. • Dilute HRP (1:1000) in another half of volume (same volume with peptide) then mix with peptides. • Incubate the peptide-HRP mixtures for 20 minutes at RT 8. Wash plate 3× with cold PBS* 9. Add peptide-HRP mixtures at 50 μl per well (write time on plate) 10. Incubate at RT after last peptide has been added for exactly 30 minutes 11. Turn on plate reader and prepare files 12. Promptly wash plate 5× with room temperature PBS 13. Add 100 μl/well TMB substrate (write time on plate) 14. Incubate in dark at room temp for a maximum of 30 minutes 15. Stop reaction with 100 μl of 0.18M H2SO4, 30 min. after adding TMB 16. Take last reading at 450 nm soon after stopping reaction

Assay [2] has as its target T2, EBP50 d1 (Homo sapiens, UniProt O14745).
T2 construct: made in house
The procedure:
as §1, §2, §3, §4, §5, §6, §7, §8, §9, §10, §11

For assay [3], the target named is T3, Shank 1 (Homo sapiens, UniProt Q9Y566).
T3 construct: made in house
The procedure: as §1, §2, §3, §4, §5, §6, §7, §8, §9, §10, §11

Assay [4] addresses T4, EBP50 (Homo sapiens, UniProt O14745).
T4 construct: made in house
The procedure: as §1, §2, §3, §4, §5, §6, §7, §8, §9, §10, §11

Assay [5] deals with T5, Tip (Homo sapiens, UniProt O14907).
T5 construct: made in house
The procedure: as §1, §2, §3, §4, §5, §6, §7, §8, §9, §10, §11

Assay [6] has as its target T6, Shank 3 (Homo sapiens, UniProt Q9BYB0).
T6 construct: made in house
The procedure: as §1, §2, §3, §4, §5, §6, §7, §8, §9, §10, §11

For assay [7], the target named is T7, PICK1 F.L. (Homo sapiens, UniProt Q9NRD5).
T7 construct: PICK1 F.L; made in house
The procedure: as §1, §2, §3, §4, §5, §6, §7, §8, §9, §10, §11

Assay [8] deals with T8, GORASP1 d1 (Homo sapiens, UniProt Q9BQQ3).
T8 construct: made in house
The procedure: as §1, §2, §3, §4, §5, §6, §7, §8, §9, §10, §11

Assay [9] addresses T9, SITAC-18 d1 (Homo sapiens, UniProt Q9H190).
T9 construct: made in house
The procedure: as §1, §2, §3, §4, §5, §6, §7, §8, §9, §10, §11

Assay [10] concerns the target T10, KIAA0316 (Homo sapiens, UniProt Q14CM0, A161E).
T10 construct: made in house
The procedure: as §1, §2, §3, §4, §5, §6, §7, §8, §9, §10, §11

For assay [11], the target named is T11, RIM2 (Homo sapiens, UniProt Q9UQ26).
T11 construct: made in house
The procedure:
as §1, §2, §3, §4, §5, §6, §7, §8, §9, §10, §11

The target of assay [12] is T12, NOS1 (Homo sapiens, UniProt P29475).
T12 construct: made in house
The procedure: as §1, §2, §3, §4, §5, §6, §7, §8, §9, §10, §11

Assay [13] concerns the target T13, PAR3L d3 (Homo sapiens, UniProt Q8TEW8).
T13 construct: made in house
The procedure: as §1, §2, §3, §4, §5, §6, §7, §8, §9, §10, §11

Assay [14] has as its target T14, PAR6 beta (Homo sapiens, UniProt Q9BYG5).
T14 construct: made in house
The procedure: as §1, §2, §3, §4, §5, §6, §7, §8, §9, §10, §11

For assay [15], the target named is T15, MUPP1d11 (Homo sapiens, UniProt O75970).
T15 construct: made in house
The procedure:
as §1, §2, §3, §4, §5, §6, §7, §8, §9, §10, §11

Assay [16] concerns the target T16, MINT1 d1, 2 (Homo sapiens, UniProt Q02410).
T16 construct: MINT1 d1, 2; made in house
The procedure: as §1, §2, §3, §4, §5, §6, §7, §8, §9, §10, §11

For assay [17], the target named is T17, MUPP1d3 (Homo sapiens, UniProt O75970).
T17 construct: made in house
The procedure: as §1, §2, §3, §4, §5, §6, §7, §8, §9, §10, §11

Assay [18] concerns the target T18, INADL d3 (Homo sapiens, UniProt Q8NI35).
T18 construct: made in house
The procedure: as §1, §2, §3, §4, §5, §6, §7, §8, §9, §10, §11

For assay [19], the target named is T19, SITAC-18 d2 (Homo sapiens, UniProt Q9H190).
T19 construct: made in house
The procedure:
as §1, §2, §3, §4, §5, §6, §7, §8, §9, §10, §11

Assay [20] deals with T20, AIPC d1 (Homo sapiens, UniProt O15018).
T20 construct: made in house
The procedure: as §1, §2, §3, §4, §5, §6, §7, §8, §9, §10, §11

Assay [21] concerns the target T21, ZO-1 d4 (Homo sapiens, UniProt Q07157).
T21 construct: ZO-1 d4; made in house
The procedure: as §1, §2, §3, §4, §5, §6, §7, §8, §9, §10, §11

The target of assay [22] is T22, RhophilinLike (Homo sapiens, UniProt Q8TCX5).
T22 construct: made in house
The procedure:
as §1, §2, §3, §4, §5, §6, §7, §8, §9, §10, §11

Assay [23] deals with T23, Magi1 d1 (Homo sapiens, UniProt Q96QZ7).
T23 construct: made in house
The procedure: as §1, §2, §3, §4, §5, §6, §7, §8, §9, §10, §11

T19 sequence (Q9H190 with tags, fused parts or gaps): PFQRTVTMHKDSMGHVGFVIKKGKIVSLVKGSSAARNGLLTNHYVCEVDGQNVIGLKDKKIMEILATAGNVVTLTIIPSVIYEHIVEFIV
T23 sequence (Q96QZ7 with tags, fused parts or gaps): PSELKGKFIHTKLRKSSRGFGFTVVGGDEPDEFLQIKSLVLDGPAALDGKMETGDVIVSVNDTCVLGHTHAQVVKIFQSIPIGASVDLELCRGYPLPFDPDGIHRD
T4 sequence (O14745 whole entry): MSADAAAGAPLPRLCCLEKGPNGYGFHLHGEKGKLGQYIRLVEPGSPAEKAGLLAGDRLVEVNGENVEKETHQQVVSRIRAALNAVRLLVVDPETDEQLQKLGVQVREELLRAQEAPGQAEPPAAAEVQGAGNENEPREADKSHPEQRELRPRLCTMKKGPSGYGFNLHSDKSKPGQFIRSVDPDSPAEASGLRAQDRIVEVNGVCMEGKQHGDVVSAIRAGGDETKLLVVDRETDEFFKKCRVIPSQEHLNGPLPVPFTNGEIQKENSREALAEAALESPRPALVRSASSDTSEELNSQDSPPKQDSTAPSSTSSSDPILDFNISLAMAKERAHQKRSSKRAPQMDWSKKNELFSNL
T17 sequence (O75970 with tags, fused parts or gaps): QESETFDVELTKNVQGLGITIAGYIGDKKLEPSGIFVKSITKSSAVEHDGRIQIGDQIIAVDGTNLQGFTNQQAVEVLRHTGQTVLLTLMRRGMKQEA
T18 sequence (Q8NI35 with tags, fused parts or gaps): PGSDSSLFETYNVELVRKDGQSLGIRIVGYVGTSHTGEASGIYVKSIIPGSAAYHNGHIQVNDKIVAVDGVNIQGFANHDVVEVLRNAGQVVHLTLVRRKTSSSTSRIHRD
T15 sequence (O75970 1716-1813): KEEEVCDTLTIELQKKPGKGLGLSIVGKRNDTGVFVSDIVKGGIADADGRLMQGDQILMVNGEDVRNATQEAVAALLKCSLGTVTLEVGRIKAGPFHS
T16 sequence (Q02410 651-828): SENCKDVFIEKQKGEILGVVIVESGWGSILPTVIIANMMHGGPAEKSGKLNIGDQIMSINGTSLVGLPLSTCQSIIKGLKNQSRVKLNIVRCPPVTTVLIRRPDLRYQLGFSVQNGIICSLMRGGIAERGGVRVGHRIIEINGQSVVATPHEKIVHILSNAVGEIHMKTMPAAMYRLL
T10 sequence (Q14CM0 with tags, fused parts or gaps A161E): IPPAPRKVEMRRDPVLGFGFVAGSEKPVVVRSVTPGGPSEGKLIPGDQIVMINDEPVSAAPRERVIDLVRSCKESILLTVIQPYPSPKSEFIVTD
T14 sequence (Q9BYG5 with tags, fused parts or gaps): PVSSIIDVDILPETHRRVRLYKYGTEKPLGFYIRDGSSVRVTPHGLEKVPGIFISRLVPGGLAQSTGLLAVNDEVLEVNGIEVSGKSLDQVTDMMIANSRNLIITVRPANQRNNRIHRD
T20 sequence (O15018 with tags, fused parts or gaps): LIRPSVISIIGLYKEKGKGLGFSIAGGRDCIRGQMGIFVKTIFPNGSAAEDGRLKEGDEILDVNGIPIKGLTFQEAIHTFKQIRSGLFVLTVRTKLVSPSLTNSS
T21 sequence (Q07157 178-269 limits assumed): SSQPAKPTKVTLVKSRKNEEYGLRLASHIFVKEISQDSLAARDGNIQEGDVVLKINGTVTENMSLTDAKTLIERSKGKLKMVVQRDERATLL
T3 sequence (Q9Y566 with tags, fused parts or gaps): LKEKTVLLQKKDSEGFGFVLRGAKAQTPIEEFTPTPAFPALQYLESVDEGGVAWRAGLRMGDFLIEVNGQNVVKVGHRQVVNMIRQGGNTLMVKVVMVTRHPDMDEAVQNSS
T12 sequence (P29475 11-100): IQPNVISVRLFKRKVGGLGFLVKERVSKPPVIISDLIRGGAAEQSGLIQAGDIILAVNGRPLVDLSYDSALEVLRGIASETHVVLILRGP
T11 sequence (Q9UQ26 632-757): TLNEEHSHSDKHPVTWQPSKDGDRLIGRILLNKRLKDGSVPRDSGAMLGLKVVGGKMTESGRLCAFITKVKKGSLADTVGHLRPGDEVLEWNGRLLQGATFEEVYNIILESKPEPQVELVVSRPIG
T9 sequence (Q9H190 104-195): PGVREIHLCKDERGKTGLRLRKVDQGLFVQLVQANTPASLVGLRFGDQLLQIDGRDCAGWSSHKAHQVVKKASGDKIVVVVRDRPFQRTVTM
T8 sequence (Q9BQQ3 1-110): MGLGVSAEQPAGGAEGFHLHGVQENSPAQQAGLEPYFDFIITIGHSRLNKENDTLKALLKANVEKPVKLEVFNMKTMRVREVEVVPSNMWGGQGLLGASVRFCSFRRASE
T6 sequence (Q9BYB0 638-747): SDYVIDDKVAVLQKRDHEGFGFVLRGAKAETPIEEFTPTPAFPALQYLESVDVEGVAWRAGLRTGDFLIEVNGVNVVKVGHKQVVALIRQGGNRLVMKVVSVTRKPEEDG
T7 sequence (Q9NRD5 whole entry): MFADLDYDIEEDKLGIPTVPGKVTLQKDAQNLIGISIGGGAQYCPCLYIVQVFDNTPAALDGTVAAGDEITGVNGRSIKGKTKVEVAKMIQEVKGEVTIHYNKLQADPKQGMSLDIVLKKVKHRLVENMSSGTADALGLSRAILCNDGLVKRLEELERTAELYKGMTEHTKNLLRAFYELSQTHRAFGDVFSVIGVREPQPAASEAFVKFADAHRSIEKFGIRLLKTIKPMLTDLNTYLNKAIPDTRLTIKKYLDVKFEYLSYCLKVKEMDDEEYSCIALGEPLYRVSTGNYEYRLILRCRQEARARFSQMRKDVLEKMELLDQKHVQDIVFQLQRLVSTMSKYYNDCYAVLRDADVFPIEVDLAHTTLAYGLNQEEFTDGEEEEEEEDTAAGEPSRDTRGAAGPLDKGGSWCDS
T1 sequence (Q9UPX8 with tags, fused parts or gaps): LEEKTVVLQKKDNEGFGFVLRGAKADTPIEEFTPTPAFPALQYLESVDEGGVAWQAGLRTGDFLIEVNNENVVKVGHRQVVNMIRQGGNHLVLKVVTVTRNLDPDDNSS
T13 sequence (Q8TEW8 with tags, fused parts or gaps): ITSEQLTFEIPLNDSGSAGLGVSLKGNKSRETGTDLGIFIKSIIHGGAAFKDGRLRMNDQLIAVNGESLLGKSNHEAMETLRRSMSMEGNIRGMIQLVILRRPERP
T5 sequence (O14907 15-112): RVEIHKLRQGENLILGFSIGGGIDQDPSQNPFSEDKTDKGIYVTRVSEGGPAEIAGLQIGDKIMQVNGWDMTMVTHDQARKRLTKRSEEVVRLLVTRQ
T22 sequence (Q8TCX5 with tags, fused parts or gaps): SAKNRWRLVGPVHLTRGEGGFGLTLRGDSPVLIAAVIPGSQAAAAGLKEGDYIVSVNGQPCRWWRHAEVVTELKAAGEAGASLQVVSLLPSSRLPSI
T2 sequence (O14745 with tags, fused parts or gaps): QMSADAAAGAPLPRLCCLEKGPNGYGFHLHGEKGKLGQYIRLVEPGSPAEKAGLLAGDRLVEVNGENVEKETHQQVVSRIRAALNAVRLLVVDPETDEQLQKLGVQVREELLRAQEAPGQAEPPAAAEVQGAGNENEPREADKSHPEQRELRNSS

On to YGRKKRRQRRRRQGFERALL-OH [Peptide 1905], for which the “Intensity of Hit, PDZ Shank 2” value in [1] is “STRONG”. In addition, in assay [2], the “Intensity of Hit, PDZ EBP50 d1” value was “STRONG”. The “Intensity of Hit, PDZ Shank 1” value in assay [3] is recorded as “STRONG”. In addition, the “Intensity of Hit, PDZ EBP50” value in assay [4] is reported as “STRONG”. In assay [5], the “Intensity of Hit, PDZ Tip” value is reported as “STRONG”. For the same substance, the “Intensity of Hit, PDZ Shank 3” value in assay [6] is “STRONG”. Also, the “Intensity of Hit, PDZ PICK1 F.L.” value in [7] is listed as “STRONG”.

Regarding YGRKKRRQRRRRQGLERILL-OH [Peptide 1904], the “Intensity of Hit, PDZ GORASP1 d1” value in assay [8] is “STRONG”. For the same substance, the “Intensity of Hit, PDZ SITAC-18 d1” value in [9] is recorded as “STRONG”. Besides, in assay [10], the “Intensity of Hit, PDZ KIAA0316” value is “STRONG”. The “Intensity of Hit, PDZ RIM2” value in assay [11] is listed as “STRONG”. The “Intensity of Hit, PDZ NOS1” value in assay [12] is “STRONG”. Further, in assay [13], the “Intensity of Hit, PDZ PAR3L d3” value is “STRONG”. Also, in [14], the “Intensity of Hit, PDZ PAR6 beta” value was “STRONG”. Further, the “Intensity of Hit, PDZ MUPP1d11” value in [15] is on record as “STRONG”. Also, the “Intensity of Hit, PDZ MINT1 d1, 2” value in [16] is “STRONG”. In addition, in assay [17], the “Intensity of Hit, PDZ MUPP1d3” value is “WEAK”. The “Intensity of Hit, PDZ INADL d3” value in assay [18] is listed as “STRONG”. Besides, in assay [19], the “Intensity of Hit, PDZ SITAC-18 d2” value is reported as “STRONG”. In addition, the “Intensity of Hit, PDZ AIPC d1” value in assay [20] was “STRONG”. The “Intensity of Hit, PDZ ZO-1 d4” value in assay [21] was “STRONG”. The “Intensity of Hit, PDZ RhophilinLike” value in [22] is “STRONG”. The “Intensity of Hit, PDZ Magi1 d1” value in [23] is given as “STRONG”.
